These results are taken from US6197802A, “Fungicidal melithiazole derivatives” (American Cyanamid Co., priority 1997, dated 2001).

The test system of data set [1] is Botrytis cinera. Nature of the data set: Serial dilution test, Minimum Inhibitory Concentration, Botrytis cinera (BOC). The conditions noted are these: read-out: MIC (BOC). The data set is classed as cell-based. Here is the method: (§1) Determination of Minimum Inhibitory Concentration by Test Compounds in the Serial Dilution Test with Botrytis cinera (BOC), and Hansenula anomala (HNA).
(§2) The MIC (Minimum Inhibitory Concentration) value, which indicates the lowest concentration of the active ingredient in the growth medium which causes a total inhibition of mycelial growth, is determined by serial dilution tests. The compounds of the invention have been compared with known melithiazole C. melithiazole C-amide and with the commercially available strobilurines kresoxim-methyl (BASF AG) and azoxystrobin (ZENECA).

Data set [2] has as its system mouse fibroblasts (cell line L929). Nature of the data set: Toxicity using mouse fibroblasts (cell line L929). The data set is classed as cell-based. The following applies: for Therapeutic Index: ratio toxicity IC50 (L929) / BOC-MIC. The text has this: In addition, the toxicity IC50 of these compounds has been evaluated using mouse fibroblasts (cell line L929). The therapeutic index given is defined as the ratio between the toxicity and the BOC-MIC value (IC50 /MIC).

Data set [3] deals with Plasmopara viticola. Kind of data set: Curative (2 d cur) activity, grape downy mildew (GDM). The conditions noted are these: 2 d curative. The data set is classed as in vivo.
For data set [4], the system named is Plasmopara viticola. Kind of data set: Protective (1 d res) activity, grape downy mildew (GDM). The data set is classed as in vivo. The following applies: 1 d protective.
For data set [5], the system named is Pyrenophora teres. Kind of data set: Protective (1 d res) activity, barley net blotch (BNB). The data set is classed as in vivo. The following applies: 1 d protective.
For data set [6], the system named is powdery mildew (Erysiphe graminis) on wheat. Kind of data set: Foliar systemicity in wheat leaves, wheat powdery mildew as indicator disease. The conditions noted are these: for Systemicity distal (disease free zone) / Systemicity proximal (disease free zone): wheat leaves, band application of 400 ppm solution; for Systemicity distal (disease free zone): toward leaf apex; for Systemicity proximal (disease free zone): toward leaf base.
From the text: Foliar systemicity: When the primary leaves of wheat planted in 8 cm diameter pots in the greenhouse were fully expanded, the plants were cut back to four leaves in each pot of which two were marked with a permanent marker 5 cm below the leaf tip on the upper leaf surface. Thus there were two band-treated and two untreated plants in each pot. […] The application band covered the whole leaf width. After application and after the bands were dried, the plants were moved to the greenhouse and kept there for 2 days to allow for movement of the compounds. The plants were kept by bottom watering. The plants were then inoculated by dusting them with powdery mildew conidia (Erysiphe graminis). Evaluations were made 7-8 days after inoculation. Distal and proximal movement were assessed as follows: The distal and proximal disease free zones on the upper leaf surface were measured in mm. The distal direction is from the band toward the leaf apex and the proximal direction is from the band towards the leaf base.

Data set [7] has as its system Hansenula anomala. Kind of data set: Serial dilution test, Minimum Inhibitory Concentration, Hansenula anomala (HNA). The conditions noted are these: read-out: MIC (HNA). The class given is cell-based. How it is done:
as §1, §2

Data set [8] deals with Phytophthora infestans. The data set is classed as in vivo. The following applies: 1 d protective.
For data set [9], the system named is phytopathogenic fungi. Nature of the data set: Curative in-vivo tests, overall statement. The conditions noted are these: overall statement in words. How it is done:
Test Plants: Test plants were grown up in the greenhouse. Either seed, pregerminated seed or rooted vegetative plant material was planted in pots containing a fertilized soil/peat mixture. Test plants were used for treating them with the various fungicides when they were in the 3-4 leaf stage. The number of leaves of vegetatively propagated plant material was cut back to 3-4 leaves per plant.
Application: Test plants were treated with fungicides either 1 or 3 days before (protective treatments) or 2 or 3 days after (curative treatments) the inoculation with a pathogen. The test compounds were applied to the test plants using a lateral-nozzle sprayer with a turntable rotating the pots, or the test compounds were applied with an hand-held airbrush. 24 plants were used per treatment.
Compounds: Technical material of the compound according to the invention coded MCM, and of commercially available strobilurines kresoxim-methyl (BASF) and azoxystrobin (ZENECA) was dissolved in acetone with 0.5% Triton X155 at a concentration of 0.5%. […]
Assessment of diseases: The percentage of leaf area infected was assessed by visual estimation when untreated control plants were just completely diseased. Each plant was individually evaluated and then the mean infection rating was calculated for each treatment. The fungicidal activity was calculated using the following formula: [formula] […]

For data set [10], the system named is Bortrytis cinera. The following applies: poster of B. Bohlendorf et al., 1996; cited from earlier work.
Where [11] appears, read: Botrytis cinera, total inhibition of mycelial growth.
The mark [12] stands for this setting: toxicity, mouse fibroblasts L929, read-out: IC50.
The mark [13] stands for this setting: total inhibition of mycelial growth.

≈ marks a conversion by molar mass, not a printed value. Where two headings read alike, the source gives them in different places.

As for `CO/N=C(/C(=O)OC)c1ccccc1COc1ccccc1C` [kresoxim-methyl, reference compound], the MIC in data set [1] (setting [11]) came to 0.1 µg/mL (≈ 0.319 µM). Also, the “Therapeutic Index” value in [2] turned out to be 3.75. Further, the IC50 in data set [2] (setting [12]) was determined as 0.375 µg/mL (≈ 1.2 µM). The “activity (%) GDM 2d cur” value is 0% in data set [3] (dose 4 ppm) and 9% in data set [3] (dose 20 ppm). For the same molecule, the “activity (%) GDM 1 d res” value is 39% in data set [4] (dose 4 ppm) and 87% in [4] (dose 20 ppm). Besides, the “activity (%) BNB 1 d res” value was 97% in [5] (dose 4 ppm) and 98% in [5] (dose 20 ppm). For the same molecule, in [6], the “Systemicity distal (disease free zone)” value turned out to be 23 mm. The “Systemicity proximal (disease free zone)” value in [6] is 13 mm.

Consider `CO/N=C(\C)c1nc(/C=C/[C@H](OC)[C@@H](C)/C(=C\C(=O)OC)OC)cs1` [8:(E)-MCM], for which the MIC stood at 0.0025 µg/mL (≈ 0.00679 µM) in [1] (setting [11]) and 0.08 µg/mL (≈ 0.217 µM) in data set [7] (setting [13]). Also, the “Therapeutic Index” value in data set [2] is listed as 160. Further, in data set [2] (setting [12]), the IC50 came to 0.4 µg/mL (≈ 1.09 µM).

For `COC(=O)/C=C(/OC)[C@H](C)[C@H](/C=C/c1csc(C(C)OC(C)=O)n1)OC` (some centres unmarked) [Example 20, Methyl 7-[2-(1-acetoxyethyl)thiazol-4-yl]-3,5-dimethoxy-4-methylheptan-2,6-dienoate], the values for the MIC in data set [1] (setting [11]) and in data set [7] (setting [13]) were 0.3 µg/mL (≈ 0.782 µM) and 1.25 µg/mL (≈ 3.26 µM), respectively. Further, the “Therapeutic Index” value in data set [2] is on record as greater than 13.33. Further, the IC50 in [2] (setting [12]) was greater than 4 µg/mL.

For the molecule `COC(=O)/C=C(/OC)[C@H](C)[C@H](/C=C/c1csc(/C(C)=N\OCc2ccccc2)n1)OC` [Example 9], the values for the MIC in [1] (setting [11]) and in data set [7] (setting [13]) were 0.15 µg/mL (≈ 0.337 µM) and 0.6 µg/mL (≈ 1.35 µM), respectively. Besides, the “Therapeutic Index” value in [2] is recorded as 3.33. In data set [2] (setting [12]), the IC50 is 0.5 µg/mL (≈ 1.12 µM).

`COC(=O)/C=C(/OC)[C@H](C)[C@H](/C=C/c1csc(/C(C)=N/OCc2ccccc2)n1)OC` [Example 10]: the MIC in [1] (setting [11]) was 0.04 µg/mL (≈ 0.09 µM); in [7] (setting [13]), 0.3 µg/mL (≈ 0.675 µM). Moreover, in data set [2], the “Therapeutic Index” value came to 1.25. Moreover, the IC50 in data set [2] (setting [12]) was 0.05 µg/mL (≈ 0.112 µM).

As for `CON=C(C)c1nc(/C=C/[C@H](OC)[C@@H](C)/C(=C\C(=O)OC)OC)cs1` (mixture of isomers) [MCM], the “activity (%) GDM 2d cur” value in data set [3] (dose 4 ppm) was determined as 0%; in data set [3] (dose 20 ppm), 59%. Besides, the results for the “activity (%) GDM 1 d res” value in data set [4] (dose 4 ppm) and in data set [4] (dose 20 ppm) were 92% and 100%, respectively. Moreover, the “activity (%) TLB 1 d res” value is listed as 25% in data set [8] (dose 4 ppm) and 65% in data set [8] (dose 20 ppm). In addition, the “activity (%) BNB 1 d res” value in data set [5] (dose 4 ppm) and in data set [5] (dose 20 ppm) was 100% in each case. Moreover, the curative activity result in data set [9] was “better than that of the commercialized strobilurine derivatives kresoxim-methyl and azoxystrobin”. In addition, the foliar systemicity result in data set [6] (overall statement in words) was “better than that of the commercialized strobilurine derivatives kresoxim-methyl and azoxystrobin”. Further, the bioavailable result in data set [6] (plant, implied by foliar systemicity and curative values) was “readily and highly bioavailable”. In addition, the “Systemicity distal (disease free zone)” value in [6] turned out to be 50 mm. Also, the “Systemicity proximal (disease free zone)” value in [6] was 21 mm.

For the molecule `COC(=O)/C=C(/OC)[C@H](C)[C@H](/C=C/c1csc(C2(C)CO2)n1)OC` (some centres unmarked) [Example 41, Methyl 7-[2-(1,2-epoxy-1-methylethyl)thiazol-4-yl]-3,5-dimethoxy-4-methylheptan-2,6-dienoate], the figures for the MIC in data set [1] (Botrytis) and in data set [7] were 0.6 µg/mL (≈ 1.7 µM) and 5 µg/mL (≈ 14.1 µM), respectively. In data set [2] (Mus musculus, L929), this molecule registered an IC50 greater than 3.7 µg/mL. Besides, the “Therapeutic Index” value in [2] is reported as greater than 6.17.

`COC(=O)/C=C(/OC)[C@H](C)[C@H](/C=C/c1csc(C(C)OC)n1)OC` (some centres unmarked) [Example 21, Methyl 7-[2-(1-methoxyethyl)thiazol-4-yl]-3,5-dimethoxy-4-methylheptan-2,6-dienoate]: the values for the minimum inhibitory concentration (MIC) in data set [1] (setting [11]) and in data set [7] (setting [13]) were 0.15 µg/mL (≈ 0.422 µM) and 0.08 µg/mL (≈ 0.225 µM), respectively. In data set [2], the “Therapeutic Index” value stood at 13.33. In data set [2] (setting [12]), the IC50 is 2 µg/mL (≈ 5.63 µM).

`C=C(C)c1nc(/C=C/[C@H](OC)[C@@H](C)/C(=C\C(=O)OC)OC)cs1` [Example 29, Methyl 7-[2-isopropenylthiazol-4-yl]-3,5-dimethoxy-4-methylheptan-2,6-dienoate]: the MIC is 0.02 µg/mL (≈ 0.0593 µM) in data set [1] (Botrytis) and 0.3 µg/mL (≈ 0.889 µM) in data set [7]. The molecule also registered an IC50 in [2] (Mus musculus, L929) of 2 µg/mL (≈ 5.93 µM). The “Therapeutic Index” value in data set [2] was determined as 100.

Take `CCOC(=O)/C=C(/OC)[C@H](C)[C@H](/C=C/c1csc(C(C)=NOC)n1)OC` (mixture of isomers) [(E/Z)-(13/14)]: the MIC in data set [1] (setting [11]) was 0.005 µg/mL; in data set [7] (setting [13]) it was 0.02 µg/mL. In addition, the “Therapeutic Index” value in data set [2] is on record as 40. Also, in data set [2] (setting [12]), the IC50 amounted to 0.2 µg/mL.

Take `CO/C(=C/C(N)=O)[C@H](C)[C@H](/C=C/c1csc(C(C)=O)n1)OC` [1:melithiazole C-amide, 7-(2-acetylthiazol-4-yl)-3,5-dimethoxy-4-methylheptan-2,6-dienoic amide, reference compound]: the MIC in data set [1] (setting [11]) and in data set [7] (setting [13]) was greater than 10 µg/mL in each case. Also, in data set [2], the “Therapeutic Index” value was less than 0.8. In addition, in [2] (setting [12]), the IC50 was determined as 8 µg/mL (≈ 24.7 µM).

Regarding `COC(=O)/C=C(/OC)[C@H](C)[C@H](/C=C/c1csc(C(C)=O)n1)OC` [2:melithiazole C, methyl 7-(2-acetylthiazol-4-yl)-3,5-dimethoxy-4-methylheptan-2,6-dienoate, reference compound], the MIC in [1] (setting [11]) was determined as 1.5 µg/mL (≈ 4.42 µM); in [7] (setting [13]), 3 µg/mL (≈ 8.84 µM). For the same molecule, the “Therapeutic Index” value in [2] was 0.37. Moreover, in [2] (setting [12]), the IC50 turned out to be 0.55 µg/mL (≈ 1.62 µM). In addition, the “in vitro activity against Bortrytis cinera” value in [10] was “weak in vitro activity”.

In the case of `CO/N=C(/C)c1nc(/C=C/[C@H](OC)[C@@H](C)/C(=C\C(=O)OC)OC)cs1` [8:(Z)-MCM], the MIC in data set [1] (setting [11]) was 0.005 µg/mL (≈ 0.0136 µM); in data set [7] (setting [13]), 0.08 µg/mL (≈ 0.217 µM). The “Therapeutic Index” value in [2] is recorded as 100. In addition, the IC50 in [2] (setting [12]) is 0.5 µg/mL (≈ 1.36 µM).

Regarding `CO/C=C(/C(=O)OC)c1ccccc1Oc1cc(Oc2ccccc2C#N)ncn1` [azoxystrobin, reference compound], in data set [6], the “Systemicity distal (disease free zone)” value is recorded as 43 mm and the “Systemicity proximal (disease free zone)” value is given as 9 mm.
